Experimental data published in paper PMC11748363, “Antimicrobial and Antiproliferative Properties of 2‐Phenyl‐N‐(Pyridin‐2‐yl)acetamides” (Chemical Biology & Drug Design, 2025).
≈ marks a conversion by molar mass, not a printed value. Like-named read-outs stand apart in the source and are kept apart here.

Columns and labels:
[1] = system: Mycobacterium tuberculosis H37Ra; experiment: Antimycobacterial microdilution broth MIC (resazurin), Mtb H37Ra; type: cell-based; conditions: Mycobacterium tuberculosis, H37RA, read-out: MIC Mtb H37Ra
[2] = system: Mycolicibacterium smegmatis DSM 43465; experiment: Antimycobacterial microdilution broth MIC (resazurin), M. smegmatis; type: cell-based; conditions: DSM43465, read-out: MIC M. smegmatis
[3] = system: Mycolicibacterium aurum DSM 43999; experiment: Antimycobacterial microdilution broth MIC (resazurin), M. aurum; type: cell-based; conditions: DSM43999, read-out: MIC M. aurum
[4] = system: HepG2 cell line; experiment: Cytotoxicity CellTiter 96, HepG2; type: cell-based, human; conditions: Homo sapiens, HepG2, 24 h, 24 h incubation; ^c compound precipitated in the testing medium; ^d over the limit of tested concentrations
[5] = system: Staphylococcus aureus CCM 4223, ATCC 29213; experiment: Antibacterial microdilution broth MIC, SA; type: cell-based
[6] = system: Staphylococcus aureus subsp. aureus CCM 4750, ATCC 43300 (MRSA); experiment: Antibacterial microdilution broth MIC, MRSA; type: cell-based
[7] = system: Staphylococcus epidermidis CCM 4418, ATCC 12228; experiment: Antibacterial microdilution broth MIC, SE; type: cell-based
[8] = system: Enterococcus faecalis CCM 4224, ATCC 29212; experiment: Antibacterial microdilution broth MIC, EF; type: cell-based
[9] = system: Escherichia coli CCM 3954, ATCC 25922; experiment: Antibacterial microdilution broth MIC, EC; type: cell-based
[10] = system: Acinetobacter baumannii DSM 30007, ATCC 19606; experiment: Antibacterial microdilution broth MIC, ACI; type: cell-based
[11] = system: Pseudomonas aeruginosa CCM 3955, ATCC 27853; experiment: Antibacterial microdilution broth MIC, PA; type: cell-based
[12] = system: Candida albicans CCM 8320, ATCC 24433; experiment: Antifungal microdilution broth MIC, CA
[13] = system: Candida krusei CCM 8271, ATCC 6258; experiment: Antifungal microdilution broth MIC, CK; conditions: Pichia kudriavzevii
[14] = system: Candida parapsilosis CCM 8260, ATCC 22019; experiment: Antifungal microdilution broth MIC, CP; conditions: Lodderomyces parapsilosis
[15] = system: Candida tropicalis CCM 8264, ATCC 750; experiment: Antifungal microdilution broth MIC, CT
[16] = system: Aspergillus fumigatus ATCC 204305; experiment: Antifungal microdilution broth MIC, AF
[17] = system: Lichtheimia corymbifera CCM 8077; experiment: Antifungal microdilution broth MIC, LC
[18] = system: Trichophyton interdigitale CCM 8377, ATCC 9533; experiment: Antifungal microdilution broth MIC, TI; conditions: Trichophyton interdigitale
[19] = system: Aspergillus flavus CCM 8363; experiment: Antifungal microdilution broth MIC, AFla
[20] = system: Klebsiella pneumoniae CCM 4415, ATCC 10031; experiment: Antibacterial microdilution broth MIC, KP
[21] = Staphylococcus aureus, 24 h; read-out: MIC SA 24h
[22] = Staphylococcus aureus, 48 h; read-out: MIC SA 48h
[23] = Staphylococcus aureus, 24 h; read-out: MIC MRSA 24h
[24] = Staphylococcus aureus, 48 h; read-out: MIC MRSA 48h
[25] = ATCC204305, 24 h, read-out: MIC AF 24h
[26] = ATCC204305, 48 h, read-out: MIC AF 48h
[27] = CCM8077, 24 h, read-out: MIC LC 24h
[28] = CCM8077, 48 h, read-out: MIC LC 48h
[29] = CCM8363, 24 h, read-out: MIC AFla 24h
[30] = CCM8363, 48 h, read-out: MIC AFla 48h

COc1ccccc1CC(=O)Nc1ccc(Cl)cn1 [Compound 5]
MIC ([1]; Calculated from MIC (μg/mL)): > 1800 µM
MIC [1]: > 500 µg/mL
MIC [2]: > 500 µg/mL
MIC [3]: > 500 µg/mL
IC50 [4]: > 250 µM
MIC [5, 21]: > 500 µM
MIC [5, 22]: > 500 µM
MIC [6, 23]: > 500 µM
MIC [6, 24]: > 500 µM
MIC ([7]; 24 h, read-out: MIC SE 24h): > 500 µM
MIC ([7]; 48 h, read-out: MIC SE 48h): > 500 µM
MIC ([8]; 24 h, read-out: MIC EF 24h): > 500 µM
MIC ([8]; 48 h, read-out: MIC EF 48h): > 500 µM
MIC ([9]; 24 h, read-out: MIC EC 24h): > 500 µM
MIC ([9]; 48 h, read-out: MIC EC 48h): > 500 µM
MIC ([10]; 24 h, read-out: MIC ACI 24h): > 500 µM
MIC ([10]; 48 h, read-out: MIC ACI 48h): > 500 µM
MIC ([11]; 24 h, read-out: MIC PA 24h): > 500 µM
MIC ([11]; 48 h, read-out: MIC PA 48h): > 500 µM
MIC ([12]; 24 h, read-out: MIC CA 24h): > 500 µM
MIC ([12]; 48 h, read-out: MIC CA 48h): > 500 µM
MIC ([13]; 24 h, read-out: MIC CK 24h): > 500 µM
MIC ([13]; 48 h, read-out: MIC CK 48h): > 500 µM
MIC ([14]; 24 h, read-out: MIC CP 24h): > 500 µM
MIC ([14]; 48 h, read-out: MIC CP 48h): > 500 µM
MIC ([15]; 24 h, read-out: MIC CT 24h): > 500 µM
MIC ([15]; 48 h, read-out: MIC CT 48h): > 500 µM
MIC [16, 25]: > 500 µM
MIC [16, 26]: > 500 µM
MIC [17, 27]: > 500 µM
MIC [17, 28]: > 500 µM
MIC ([18]; 72 h, read-out: MIC TI 72h): 500 µM (≈ 138 µg/mL)
MIC ([18]; 120 h, read-out: MIC TI 120h): 500 µM (≈ 138 µg/mL)
MIC [19, 29]: > 500 µM
MIC [19, 30]: > 500 µM
MIC KP 24h [20]: > 500 µM
MIC KP 48h [20]: > 500 µM

COc1ccccc1CC(=O)Nc1cccc(Cl)n1 [Compound 6]
MIC ([1]; Calculated from MIC (μg/mL)): > 1800 µM
MIC [1]: > 500 µg/mL
MIC [2]: > 500 µg/mL
MIC [3]: > 500 µg/mL
IC50 [4]: > 500 µM
MIC [5, 21]: > 500 µM
MIC [5, 22]: > 500 µM
MIC [6, 23]: > 500 µM
MIC [6, 24]: > 500 µM
MIC ([7]; 24 h, read-out: MIC SE 24h): > 500 µM
MIC ([7]; 48 h, read-out: MIC SE 48h): > 500 µM
MIC ([8]; 24 h, read-out: MIC EF 24h): > 500 µM
MIC ([8]; 48 h, read-out: MIC EF 48h): > 500 µM
MIC ([9]; 24 h, read-out: MIC EC 24h): > 500 µM
MIC ([9]; 48 h, read-out: MIC EC 48h): > 500 µM
MIC ([10]; 24 h, read-out: MIC ACI 24h): > 500 µM
MIC ([10]; 48 h, read-out: MIC ACI 48h): > 500 µM
MIC ([11]; 24 h, read-out: MIC PA 24h): > 500 µM
MIC ([11]; 48 h, read-out: MIC PA 48h): > 500 µM
MIC ([12]; 24 h, read-out: MIC CA 24h): > 500 µM
MIC ([12]; 48 h, read-out: MIC CA 48h): > 500 µM
MIC ([13]; 24 h, read-out: MIC CK 24h): > 500 µM
MIC ([13]; 48 h, read-out: MIC CK 48h): > 500 µM
MIC ([14]; 24 h, read-out: MIC CP 24h): > 500 µM
MIC ([14]; 48 h, read-out: MIC CP 48h): > 500 µM
MIC ([15]; 24 h, read-out: MIC CT 24h): > 500 µM
MIC ([15]; 48 h, read-out: MIC CT 48h): > 500 µM
MIC [16, 25]: > 500 µM
MIC [16, 26]: > 500 µM
MIC [17, 27]: > 500 µM
MIC [17, 28]: > 500 µM
MIC ([18]; 72 h, read-out: MIC TI 72h): > 500 µM
MIC ([18]; 120 h, read-out: MIC TI 120h): > 500 µM
MIC [19, 29]: > 500 µM
MIC [19, 30]: > 500 µM
MIC KP 24h [20]: > 500 µM
MIC KP 48h [20]: > 500 µM

COc1cccc(CC(=O)Nc2ccccn2)c1 [Compound 7, 2-(3-methoxyphenyl)-N-(pyridin-2-yl)acetamide]
MIC ([1]; Calculated from MIC (μg/mL)): 516 µM
MIC [1]: 125 µg/mL
MIC [2]: 250 µg/mL (≈ 1030 µM)
MIC [3]: 250 µg/mL (≈ 1030 µM)
IC50 [4]: > 500 µM
MIC ([5]; Staphylococcus aureus, 24 h, read-out: MIC SA 24h): 125 µM (≈ 30.3 µg/mL)
MIC ([5]; Staphylococcus aureus, 48 h, read-out: MIC SA 48h): 125 µM (≈ 30.3 µg/mL)
MIC ([6]; Staphylococcus aureus, 24 h, read-out: MIC MRSA 24h): > 125 µM
MIC ([6]; Staphylococcus aureus, 48 h, read-out: MIC MRSA 48h): > 125 µM
MIC ([7]; 24 h, read-out: MIC SE 24h): > 125 µM
MIC ([7]; 48 h, read-out: MIC SE 48h): > 125 µM
MIC ([8]; 24 h, read-out: MIC EF 24h): > 125 µM
MIC ([8]; 48 h, read-out: MIC EF 48h): > 125 µM
MIC ([9]; 24 h, read-out: MIC EC 24h): > 125 µM
MIC ([9]; 48 h, read-out: MIC EC 48h): > 125 µM
MIC ([10]; 24 h, read-out: MIC ACI 24h): > 125 µM
MIC ([10]; 48 h, read-out: MIC ACI 48h): > 125 µM
MIC ([11]; 24 h, read-out: MIC PA 24h): > 125 µM
MIC ([11]; 48 h, read-out: MIC PA 48h): > 125 µM
MIC ([12]; 24 h, read-out: MIC CA 24h): > 125 µM
MIC ([12]; 48 h, read-out: MIC CA 48h): > 125 µM
MIC ([13]; 24 h, read-out: MIC CK 24h): > 125 µM
MIC ([13]; 48 h, read-out: MIC CK 48h): > 125 µM
MIC ([14]; 24 h, read-out: MIC CP 24h): > 125 µM
MIC ([14]; 48 h, read-out: MIC CP 48h): > 125 µM
MIC ([15]; 24 h, read-out: MIC CT 24h): > 125 µM
MIC ([15]; 48 h, read-out: MIC CT 48h): > 125 µM
MIC [16, 25]: > 125 µM
MIC [16, 26]: > 125 µM
MIC [17, 27]: > 125 µM
MIC [17, 28]: > 125 µM
MIC ([18]; 72 h, read-out: MIC TI 72h): > 125 µM
MIC ([18]; 120 h, read-out: MIC TI 120h): > 125 µM
MIC [19, 29]: > 125 µM
MIC [19, 30]: > 125 µM
MIC KP 24h [20]: > 125 µM
MIC KP 48h [20]: > 125 µM
